How the values were obtained:
NF-κB pathway = assay: NF-κB activity reporter assay in THP1-Dual cells; type: cell-based, human; conditions: for NF-κB pathway activation combined with PRR agonists: LPS or other NF-κB pathway inducers; for NF-κB pathway activation when treated with LPS: 16 hours, vs vehicle
Description: NF-κB and IRF induction assays were performed using mouse RAW-Dual™ (InvivoGen) and human THP1-Dua™ (InvivoGen) reporter cell lines. The cells were resuspended in freshly prepared test media at a concentration of 1.0×10^6 cells/mL for RAW-Dual™ and 5.0×10^5 cells/mL for THP1-Dual™. 180 μL of cells were seeded per well in a standard 96-well plate and optimized the concentration of several PRR agonists that trigger NF-κB and IRF. To test the metabolite effect on these pathways, 10 μL of the optimized receptor agonist, 10 μL of the 2 mM metabolite solution or vehicle was added to each well, making a final volume of 200 μL. To neutralize IL-1 receptor signalling, anti-IL-1a (clone 7D4, InvivoGen) and anti-IL-1β (clone 4H5, InvivoGen) antibodies were added and IgG1 isotype (clone T8E5, InvivoGen) was used as a control, as per manufacturer's recommendation. NF-κB activity was determined by measuring secreted embryonic alkaline phosphatase (SEAP) levels using QUANTI-Blue™ solution (InvivoGen). After aliquoting 20 μL of cell culture supernatant into 180 μL of QUANTI-Blue™, the conversion of color to blue was monitored and SEAP levels were determined using a SpectraMax i3 from Molecular Devices at 650 nm. To assess IRF induction, secreted lucia luciferase levels were measured in the culture medium using QUANTI-Luc™ solution (InvivoGen). 20 μL of cell culture supernatant was aliquoted into 50 μL of QUANTI-Luc™ solution and the luminescence reading was immediately recorded using the SpectraMax i3.

IRF pathway = type: cell-based, human
GSDMD = molecular target: T1, GSDMD (Homo sapiens, UniProt P57764); assay: Western blot of GSDMD cleavage in THP-1 cells; type: cell-based
T1 construct: host or cells: THP1-Dual cells (human monocytic reporter line)
T1 sequence (P57764 1-484): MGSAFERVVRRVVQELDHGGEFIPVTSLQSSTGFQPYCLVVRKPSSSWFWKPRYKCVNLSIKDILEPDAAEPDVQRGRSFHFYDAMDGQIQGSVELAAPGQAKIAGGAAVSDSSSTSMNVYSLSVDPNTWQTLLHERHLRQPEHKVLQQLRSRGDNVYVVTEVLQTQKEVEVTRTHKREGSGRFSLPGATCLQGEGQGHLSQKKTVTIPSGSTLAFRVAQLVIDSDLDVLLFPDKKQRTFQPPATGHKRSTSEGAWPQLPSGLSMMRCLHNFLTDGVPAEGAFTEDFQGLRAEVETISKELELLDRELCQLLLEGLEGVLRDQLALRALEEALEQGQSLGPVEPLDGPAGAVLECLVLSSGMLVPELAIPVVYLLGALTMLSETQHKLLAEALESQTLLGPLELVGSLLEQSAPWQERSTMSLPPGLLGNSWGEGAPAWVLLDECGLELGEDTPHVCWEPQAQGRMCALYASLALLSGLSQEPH
Description: Cells were collected and lysates prepared using total lysis buffer (50 mM Tris-HCl, pH 8.0; 150 mM NaCl; 1% Triton X-100; 1% SDS). The supernatant was obtained by centrifuging at 10,000 RPM for 10 minutes at 4° C. using a benchtop PCR centrifuge. Protein quantification was performed using the Bio-Rad DC Protein Assay Kit (Bio-Rad, NC, USA). Proteins were separated using 12% SDS-PAGE gels and transferred to a PVDF membrane using the Bio-Rad Trans-turbo semi-dry transfer apparatus at 25 V/1 A for 1 hour. The membrane was blocked with Tris-buffered-saline-Tween-20™ (TBST) containing 5% skim milk for 30 minutes at room temperature. The membrane was then probed overnight at 4° C. with rabbit monoclonal recombinant anti-GSDMD antibody (ab210070, Abcam), anti-cleaved N-terminal GSDMD antibody (ab215203, Abcam) and mouse anti-actin monoclonal antibody (MAB1501, MilliporeSigma) for human FL-GSDMD, CL-GSDMD and actin. The next day, the membranes were washed with TBST three times and probed with goat anti-rabbit (1706515, Bio-Rad) or goat anti-mouse (1706516, Bio-Rad) horseradish peroxidase-conjugated IgG for 1 hour at room temperature. The secondary antibodies were diluted in TBST containing 5% (w/v) skim milk at 1:5000 and the membranes washed with TBST before detecting the proteins of interest using the Clarity™ Western ECL Substrate (Bio-Rad) on a Chemidoc-IT Imager (UVP, Upland, CA, USA).

influenza virus = conditions: early study, Science 357, 498-502 (2017); cited from earlier work

SMILES	NF-κB pathway activation when treated with LPS (NF-κB pathway)	other results
O=C(O)CCc1cccc(O)c1 [Compound I-2, 3-(3-hydroxyphenyl)propanoic acid]	potentiates	NF-κB pathway activation combined with PRR agonists (NF-κB pathway): potentiate; IRF pathway activation combined with PRR agonists (IRF pathway): potentiate; GSDMD cleavage in the presence of LPS or LPS+NG stimulation (GSDMD): facilitating gasdermin D cleavage
O=C(O)CCc1ccc(O)cc1 [Compound I-3, 3-(4-hydroxyphenyl)propanoic acid]	potentiates	NF-κB pathway activation combined with PRR agonists (NF-κB pathway): potentiate; IRF pathway activation combined with PRR agonists (IRF pathway): potentiate; GSDMD cleavage in the presence of LPS or LPS+NG stimulation (GSDMD): facilitating gasdermin D cleavage; influenza virus pathology (influenza virus): protects from influenza virus pathology; type 1 interferon signalling (influenza virus): primes the amplification loop of type 1 interferon signalling
O=C([O-])CCc1ccc(O)cc1.[Na+] [Compound I-4, sodium 3-(4-hydroxyphenyl)propionic acid]	significantly enhanced the activation	–
COC(=O)CCc1ccc(O)cc1 [Compound I-5, methyl 3-(4-hydroxyphenyl) propionate]	significantly enhanced the activation	–
CCOC(=O)CCc1ccc(O)cc1 [Compound I-6, ethyl 3-(4-hydroxyphenyl)propionate]	significantly enhanced the activation	–
O=C(CCc1ccc(O)cc1)ON1C(=O)CCC1=O [Compound I-7, 3-(4-hydroxyphenyl)propionic acid N-hydroxysuccinimide ester]	significantly enhanced the activation	–
O=C(O)CCc1ccc(F)cc1 [II-1, 3-(4-fluorophenyl)propionic acid]	significantly enhanced the activation	–
O=C(O)CCc1ccc(Cl)cc1 [II-2, 3-(4-chlorophenyl)propionic acid]	significantly enhanced the activation	–
Nc1ccc(CCC(=O)O)cc1 [II-3, 3-(4-aminophenyl)propionic acid]	significantly enhanced the activation	–
Cc1ccc(CCC(=O)O)cc1 [II-4, 3-(4-methylphenyl)propionic acid]	significantly enhanced the activation	–
O=C(O)CCCc1ccc(O)cc1 [III-1, 4-(4-hydroxyphenyl)butanoic acid]	significantly enhanced the activation	–
O=C(O)CCCCc1ccc(O)cc1 [III-2, 5-(4-hydroxyphenyl)pentatonic acid]	significantly enhanced the activation	–
O=C(O)CCC(=O)c1ccc(O)cc1 [IV]	significantly enhanced the activation	–
NC(=O)CC[C@H](N)C(=O)O [L-gln, L-glutamine, reference compound]	had no effect	IRF pathway activation combined with PRR agonists (IRF pathway): had no effect
